Source: patent US12440529B2, “Topical Croton lechleri compositions and their use in the treatment of a bacterial colonization or primary or secondary bacterial infection of an underlying skin disorder” (ALPHYN BIOLOGICS, INC., priority 2020, dated 2025)
Values after ≈ are worked out from the molar mass of the structure shown. Read-outs that look alike come from different tables or passages of the source.

Columns and labels:
[1] = tested on: S. pyogenes (Erythromycin and Tetracycline resistant strains); experiment: MIC/MBC assay (2-fold microdilution, CAMHB with […] laked horse blood); type: cell-based; settings: Streptococcus pyogenes
Method: (§1) Tables 26 and 27 show an assay whose setup is same as what was used for screening S. aureus and P. aeruginosa (i.e. 2-fold microdilution). The 20 strains of S. pyogenes assayed were selected from the two rounds of antibiotic screening to identify Erythromycin and Tetracycline resistant strains. […] For this feasibility study, AB-101 Lot 1 and Lot 2 was used. P. aeruginosa ATCC 27853 was tested as a positive control for AB-101 activity.

[2] = tested on: MSSA strains (Mupirocin-resistant and Mupirocin-susceptible; QC ATCC 29213); experiment: In vitro MIC/MBC assay (2-fold microdilution), S. aureus strain panel; type: cell-based, Staphylococcus aureus
Method: AB-101 was tested against an extensive variety of bacterial strains, including Mupirocin-resistant MRSA, Mupirocin-resistant MSSA, Mupirocin-susceptible MSSA, Mupirocin-susceptible MRSA, and other skin-related pathogens.
Measures included the minimum inhibitory concentration (MIC) which is the lowest concentration of AB-101 that prevents visible growth of the bacterium or pathogen, and minimum bactericidal concentration (MBC) which is the lowest concentration of an antibacterial agent required to kill a bacterium.
(§2) AB-101 Lots 01, 02 and a purified extract of taspine for MIC are compared. […] Taspine may have additional synergistic benefits to be included in the whole extract in the final product for the effective treatment of a bacterial colonization or primary or secondary bacterial infection of an underlying skin disorder.
as §2, with “taspine for MBC are compared.” for “taspine for MIC are compared.”, “treatment of bacterial colonization” for “treatment of a bacterial colonization”
as §1

[3] = S. pyogenes strain 1744264, read-out: MIC
[4] = S. pyogenes strain 1744265, read-out: MIC
[5] = S. pyogenes strain 1744271, read-out: MIC
[6] = S. pyogenes strain 1744272, read-out: MIC
[7] = S. pyogenes strain 1744275, read-out: MIC
[8] = S. pyogenes strain 1744277, read-out: MIC
[9] = S. pyogenes strain 1744285, read-out: MIC
[10] = S. pyogenes strain 2065754, read-out: MIC
[11] = S. pyogenes strain 2065755, read-out: MIC
[12] = S. pyogenes strain 2065756, read-out: MIC
[13] = S. pyogenes strain 2065757, read-out: MIC
[14] = S. pyogenes strain 2065759, read-out: MIC
[15] = S. pyogenes strain 2065760, read-out: MIC
[16] = S. pyogenes strain 2065761, read-out: MIC
[17] = S. pyogenes strain 2065762, read-out: MIC
[18] = S. pyogenes strain 2065763, read-out: MIC
[19] = S. pyogenes strain 2065765, read-out: MIC
[20] = S. pyogenes strain 20658748, read-out: MIC
[21] = S. pyogenes strain 20658749, read-out: MIC
[22] = S. pyogenes strain 20658750, read-out: MIC

| MIC [1, 3] | MIC [1, 4] | MIC [1, 5] | MIC [1, 6] | MIC [1, 7] | MIC [1, 8] | MIC [1, 9] | MIC [1, 10] | MIC [1, 11] | MIC [1, 12] | MIC [1, 13] | MIC [1, 14] | MIC [1, 15] | MIC [1, 16] | MIC [1, 17] | MIC [1, 18] | MIC [1, 19] | MIC [1, 20] | MIC [1, 21] | MIC [1, 22] | SMILES | further results |
| --- | --- | --- | --- | --- | --- | --- | --- | --- | --- | --- | --- | --- | --- | --- | --- | --- | --- | --- | --- | --- | --- |
| 2 µg/mL (≈ 2.73 µM) | > 16 µg/mL | > 16 µg/mL | > 16 µg/mL | > 16 µg/mL | 0.5 µg/mL (≈ 0.681 µM) | > 16 µg/mL | > 16 µg/mL | 2 µg/mL (≈ 2.73 µM) | 2 µg/mL (≈ 2.73 µM) | > 16 µg/mL | 4 µg/mL (≈ 5.45 µM) | 2 µg/mL (≈ 2.73 µM) | > 16 µg/mL | 2 µg/mL (≈ 2.73 µM) | 2 µg/mL (≈ 2.73 µM) | > 16 µg/mL | 2 µg/mL (≈ 2.73 µM) | 1 µg/mL (≈ 1.36 µM) | 1 µg/mL (≈ 1.36 µM) | CC[C@H]1OC(=O)[C@H](C)[C@@H](O[C@H]2C[C@@](C)(OC)[C@@H](O)[C@H](C)O2)[C@H](C)[C@@H](O[C@@H]2O[C@H](C)C[C@H](N(C)C)[C@H]2O)[C@](C)(O)C[C@@H](C)C(=O)[C@H](C)[C@@H](O)[C@]1(C)O [Erythromycin] | – |
| 0.25 µg/mL (≈ 0.499 µM) | 0.5 µg/mL (≈ 0.999 µM) | 0.5 µg/mL (≈ 0.999 µM) | 0.25 µg/mL (≈ 0.499 µM) | ≤ 0.125 µg/mL | ≤ 0.125 µg/mL | ≤ 0.125 µg/mL | ≤ 0.125 µg/mL | ≤ 0.125 µg/mL | ≤ 0.125 µg/mL | ≤ 0.125 µg/mL | ≤ 0.125 µg/mL | ≤ 0.125 µg/mL | ≤ 0.125 µg/mL | ≤ 0.125 µg/mL | ≤ 0.125 µg/mL | ≤ 0.125 µg/mL | ≤ 0.125 µg/mL | ≤ 0.125 µg/mL | ≤ 0.125 µg/mL | C/C(=C\C(=O)OCCCCCCCCC(=O)O)C[C@@H]1OC[C@H](C[C@@H]2O[C@H]2[C@@H](C)[C@H](C)O)[C@@H](O)[C@H]1O [Mupirocin] | MIC ([2]; Staphylococcus aureus, strain CDC 461, MupirocinS, MSSA): 0.25 to 1 µg/mL; MIC ([2]; Staphylococcus aureus, strain CDC 461; MupirocinS, MSSA): 0.25 to 1 µg/mL |
| – | – | – | – | – | – | – | – | – | – | – | – | – | – | – | – | – | – | – | – | CN[C@H](CC(C)C)C(=O)N[C@H]1C(=O)N[C@@H](CC(N)=O)C(=O)N[C@H]2C(=O)N[C@H]3C(=O)N[C@H](C(=O)N[C@H](C(=O)O)c4cc(O)cc(O)c4-c4cc3ccc4O)[C@H](O)c3ccc(c(Cl)c3)Oc3cc2cc(c3O[C@@H]2O[C@H](CO)[C@@H](O)[C@H](O)[C@H]2O[C@H]2C[C@](C)(N)[C@H](O)[C@H](C)O2)Oc2ccc(cc2Cl)[C@H]1O [Vancomycin] | MIC ([1]; S. pyogenes strain 1744264): 0.5 µg/mL (≈ 0.345 µM); MIC ([1]; S. pyogenes strain 1744265): 8 µg/mL (≈ 5.52 µM); MIC ([1]; S. pyogenes strain 1744271): 0.5 µg/mL (≈ 0.345 µM); MIC ([1]; S. pyogenes strain 1744272): 1 µg/mL (≈ 0.69 µM); MIC ([1]; S. pyogenes strain 1744275): 0.25 to 0.5 µg/mL (≈ 0.173 to 0.345 µM); MIC ([1]; S. pyogenes strain 1744277): 4 µg/mL (≈ 2.76 µM); MIC ([1]; S. pyogenes strain 1744285): 0.5 µg/mL (≈ 0.345 µM); MIC ([1]; S. pyogenes strain 2065754): 0.5 µg/mL (≈ 0.345 µM); MIC ([1]; S. pyogenes strain 2065755): 0.5 µg/mL (≈ 0.345 µM); MIC ([1]; S. pyogenes strain 2065756): 0.5 µg/mL (≈ 0.345 µM); MIC ([1]; S. pyogenes strain 2065757): 0.5 µg/mL (≈ 0.345 µM); MIC ([1]; S. pyogenes strain 2065759): 0.5 µg/mL (≈ 0.345 µM); MIC ([1]; S. pyogenes strain 2065760): 0.5 µg/mL (≈ 0.345 µM); MIC ([1]; S. pyogenes strain 2065761): 0.5 µg/mL (≈ 0.345 µM); MIC ([1]; S. pyogenes strain 2065762): 0.5 µg/mL (≈ 0.345 µM); MIC ([1]; S. pyogenes strain 2065763): 0.5 µg/mL (≈ 0.345 µM); MIC ([1]; S. pyogenes strain 2065765): 2 to 4 µg/mL (≈ 1.38 to 2.76 µM); MIC ([1]; S. pyogenes strain 20658748): 0.25 to 0.5 µg/mL (≈ 0.173 to 0.345 µM); MIC ([1]; S. pyogenes strain 20658749): 0.5 µg/mL (≈ 0.345 µM); MIC ([1]; S. pyogenes strain 20658750): 0.5 µg/mL (≈ 0.345 µM) |

| SMILES | MIC [1, 3] | MIC [1, 4] | MIC [1, 5] | MIC [1, 6] | MIC [1, 7] | MIC [1, 8] | MIC [1, 9] | MIC [1, 10] | MIC [1, 11] | MIC [1, 12] | MIC [1, 13] | MIC [1, 14] | MIC [1, 15] | MIC [1, 16] | MIC [1, 17] | MIC [1, 18] | MIC [1, 19] | MIC [1, 20] | MIC [1, 21] | MIC [1, 22] | further results |
| --- | --- | --- | --- | --- | --- | --- | --- | --- | --- | --- | --- | --- | --- | --- | --- | --- | --- | --- | --- | --- | --- |
| CN(C)[C@@H]1C(O)=C(C(N)=O)C(=O)[C@@]2(O)C(O)=C3C(=O)c4c(O)cccc4[C@@](C)(O)[C@H]3C[C@@H]12 [Tetracycline] | 0.25 µg/mL (≈ 0.563 µM) | 8 µg/mL (≈ 18 µM) | 16 µg/mL (≈ 36 µM) | 8 µg/mL (≈ 18 µM) | 0.25 µg/mL (≈ 0.563 µM) | 0.25 µg/mL (≈ 0.563 µM) | > 16 µg/mL | 16 µg/mL (≈ 36 µM) | > 16 µg/mL | > 16 µg/mL | 16 µg/mL (≈ 36 µM) | – | > 16 µg/mL | – | > 16 µg/mL | – | 2 to 4 µg/mL (≈ 4.5 to 9 µM) | 16 µg/mL (≈ 36 µM) | 16 µg/mL (≈ 36 µM) | > 16 µg/mL | – |
